Counter-ions that a name gives are not always drawn. Like-named read-outs stand apart in the source and are kept apart here.
Assays:
Type in all cases: cell-based, human
cancer cell lines = experiment: Cell viability analysis (WST-1) on cancer cell lines; conditions: drug 10 μM, 72 hours, WST-1; Table 3
[1] = tested on: HI650 (Lung Adenocarcinoma); experiment: Cell viability analysis, lung cancer HI650; conditions: Homo sapiens
[2] = tested on: A549 (Lung Adenocarcinoma); experiment: Cell viability analysis, lung cancer A549; conditions: for viability at 10 µM: Homo sapiens
[3] = tested on: AGS (Gastric Adenocarcinoma); experiment: Cell viability analysis, gastric cancer AGS; conditions: Homo sapiens
[4] = tested on: MKN-45 (Gastric Adenocarcinoma); experiment: Cell viability analysis, gastric cancer MKN-45; conditions: for viability at 10 µM: Homo sapiens
[5] = tested on: HepG2 (Hepatocellular Carcinoma); experiment: Cell viability analysis, hepatic cancer HepG2; conditions: Homo sapiens
[6] = tested on: LoVo (Colorectal Adenocarcinoma); experiment: Cell viability analysis, colon cancer LoVo; conditions: for viability at 10 µM: Homo sapiens, LoVo
[7] = tested on: A375 (Amelanotic Melanoma); experiment: Cell viability analysis, skin cancer A375; conditions: for viability at 10 µM: Homo sapiens
[8] = tested on: HeLa (Cervix Adenocarcinoma); experiment: Cell viability analysis, cervical cancer HeLa; conditions: Homo sapiens, HeLa
[9] = tested on: PC3 (p53−) (Prostate Adenocarcinoma); experiment: Cell viability analysis, prostate cancer PC3; conditions: for viability at 10 µM: Homo sapiens
[10] = tested on: TSGH-8301 (Urinary Bladder Carcinoma); experiment: Cell viability analysis, bladder cancer TSGH-8301; conditions: for viability at 10 µM: Homo sapiens
[11] = tested on: MCF7 (Mammary Gland, Adenocarcinoma); experiment: Cell viability analysis, breast cancer MCF7; conditions: Homo sapiens
[12] = tested on: HL-60 (Acute Promyelocytic Leukemia); experiment: Cell viability analysis, leukemia HL-60; conditions: Homo sapiens
[13] = NCI-H1650, 72 h, drug 10 μM, 72 hours, WST-1, OD450 nm, read-out: cell viability (survival rate), H1650
[14] = A549, 72 h, drug 10 μM, 72 hours, WST-1, OD450 nm, read-out: cell viability (survival rate), A549
[15] = 72 h, drug 10 μM, 72 hours, WST-1, OD450 nm, read-out: cell viability (survival rate), AGS
[16] = MKN-45, 72 h, drug 10 μM, 72 hours, WST-1, OD450 nm, read-out: cell viability (survival rate), MKN-45
[17] = HepG2, 72 h, drug 10 μM, 72 hours, WST-1, OD450 nm, read-out: cell viability (survival rate), HepG2
[18] = 72 h, read-out: cell viability (survival rate), LoVo, drug 10 μM, 72 hours, WST-1, OD450 nm
[19] = A-375, 72 h, drug 10 μM, 72 hours, WST-1, OD450 nm, read-out: cell viability (survival rate), A375
[20] = 72 h, drug 10 μM, 72 hours, WST-1, OD450 nm, read-out: cell viability (survival rate), HeLa
[21] = 72 h, drug 10 μM, 72 hours, WST-1, OD450 nm, read-out: cell viability (survival rate), PC3
[22] = 72 h, drug 10 μM, 72 hours, WST-1, OD450 nm, read-out: cell viability (survival rate), TSGH
[23] = MCF7, 72 h, drug 10 μM, 72 hours, WST-1, OD450 nm, read-out: cell viability (survival rate), MCF7
[24] = HL-60, 72 h, drug 10 μM, 72 hours, WST-1, OD450 nm, read-out: cell viability (survival rate), HL-60
[25] = NCI-H1650, 72 h, read-out: cell viability (survival rate), H1650, drug 10 μM, 72 hours, WST-1, OD450 nm
[26] = 72 h, read-out: cell viability (survival rate), AGS, drug 10 μM, 72 hours, WST-1, OD450 nm
[27] = HepG2, 72 h, read-out: cell viability (survival rate), HepG2, drug 10 μM, 72 hours, WST-1, OD450 nm
[28] = 72 h, read-out: cell viability (survival rate), HeLa, drug 10 μM, 72 hours, WST-1, OD450 nm
[29] = MCF7, 72 h, read-out: cell viability (survival rate), MCF7, drug 10 μM, 72 hours, WST-1, OD450 nm
[30] = HL-60, 72 h, read-out: cell viability (survival rate), HL-60, drug 10 μM, 72 hours, WST-1, OD450 nm
[31] = A549, 72 h, read-out: cell viability (survival rate), A549, drug 10 μM, 72 hours, WST-1, OD450 nm
[32] = MKN-45, 72 h, read-out: cell viability (survival rate), MKN-45, drug 10 μM, 72 hours, WST-1, OD450 nm
[33] = A-375, 72 h, read-out: cell viability (survival rate), A375, drug 10 μM, 72 hours, WST-1, OD450 nm
[34] = 72 h, read-out: cell viability (survival rate), PC3, drug 10 μM, 72 hours, WST-1, OD450 nm
[35] = 72 h, read-out: cell viability (survival rate), TSGH, drug 10 μM, 72 hours, WST-1, OD450 nm

SMILES | inhibition effect on different cancer cell lines (cancer cell lines) | viability at 10 µM [1, 13] | viability at 10 µM [2, 14] | viability at 10 µM [3, 15] | viability at 10 µM [4, 16] | viability at 10 µM [5, 17] | viability at 10 µM [6, 18] | viability at 10 µM [7, 19] | viability at 10 µM [8, 20] | viability at 10 µM [9, 21] | viability at 10 µM [10, 22] | viability at 10 µM [11, 23] | viability at 10 µM [12, 24] | viability at 10 µM [1, 25] | viability at 10 µM [3, 26] | viability at 10 µM [5, 27] | viability at 10 µM [8, 28] | viability at 10 µM [11, 29] | viability at 10 µM [12, 30] | other results
N#CC(c1ccc(Cl)cc1)c1c(Cl)cc(-n2ncc(=O)[nH]c2=O)cc1Cl (stereo not drawn) [Diclazuril] | significant inhibition effect | 104% | 42.7% | 76.3% | 97.9% | 99.3% | 78.4% | 84.5% | 76.1% | 95.5% | 103% | 40.4% | 70.2% |  |  |  |  |  |  | 
CC(C)[C@H](N)C(=O)OCCOCn1cnc2c(=O)[nH]c(N)nc21 [Valaciclovir HCl] | significant inhibition effect | 90.6% | 126% | 110% | 91.6% | 110% | 97% | 95.6% | 109% | 68.3% | 83.9% | 67.8% | 103% |  |  |  |  |  |  | 
CC1(C)O[C@@H]2C[C@H]3[C@@H]4C[C@H](F)C5=CC(=O)C=C[C@]5(C)[C@@]4(F)[C@@H](O)C[C@]3(C)[C@]2(C(=O)CO)O1 [Fluocinolone acetonide (Flucort-N), Fluocinolone acetonide] | significant inhibition effect | 58.4% | 52.5% | 30% | 34.9% | 74.5% | 52.3% | 45.8% | 46% | 40.7% | 38.3% | 54.2% | 116% |  |  |  |  |  |  | 
CN(C)[C@@H]1C(O)=C(C(N)=O)C(=O)[C@@]2(O)C(O)=C3C(=O)c4c(O)cccc4[C@@](C)(O)[C@H]3[C@H](O)[C@@H]12 [Oxytetracycline dihydrate] | significant inhibition effect |  |  |  |  |  |  |  |  |  |  |  |  | 73.8% | 71.7% | 93.4% | 65.6% | 34.2% | 99.3% | cell viability (survival rate), A549 ([2]; human, 72 h, 10 µM): 22.1; cell viability (survival rate), MKN-45 ([4]; human, 72 h, 10 µM): 81.4; cell viability (survival rate), LoVo ([6]; human, 72 h, 10 µM): 47.0; cell viability (survival rate), A375 ([7]; human, 72 h, 10 µM): 72.5; cell viability (survival rate), PC3 ([9]; human, 72 h, 10 µM): 42.1; cell viability (survival rate), TSGH ([10]; human, 72 h, 10 µM): 53.4
O=C(O)c1cccnc1Nc1cccc(C(F)(F)F)c1 [Niflumic acid] | significant inhibition effect | 50.8% | 99.2% | 40.5% | 68.7% | 87.4% | 82% | 50% | 51.9% | 111% | 66.8% | 86.9% | 132% |  |  |  |  |  |  | 
Nc1ccn(C[C@@H](CO)OCP(=O)(O)O)c(=O)n1 [Cidofovir (Vistide), Cidofovir] | significant inhibition effect | 53.3% | 58.3% | 39.6% | 56.9% | 97.2% | 82.3% | 82.6% | 82.1% | 63.9% | 49.8% | 78.3% | 112% |  |  |  |  |  |  | 
Nc1ncnc2c1ncn2[C@@H]1O[C@H](CO)[C@@H](O)[C@@H]1O [Vidarabine (Vira-A), Vidarabine] | significant inhibition effect |  |  |  |  |  | 72.9% |  |  |  |  |  |  | 78.8% | 104% | 74.2% | 47.7% | 36.5% | 99% | viability at 10 µM [2, 31]: 32.2%; viability at 10 µM [4, 32]: 44.4%; viability at 10 µM [7, 33]: 48.1%; viability at 10 µM [9, 34]: 70.6%; viability at 10 µM [10, 35]: 68.6%
COc1ccc(O)cc1 [Mequinol] | significant inhibition effect |  |  |  |  |  | 85.2% |  |  |  |  |  |  | 67.5% | 57.2% | 95.6% | 87.1% | 74.4% | 112% | viability at 10 µM [2, 31]: 118%; viability at 10 µM [4, 32]: 103%; viability at 10 µM [7, 33]: 63.8%; viability at 10 µM [9, 34]: 68%; viability at 10 µM [10, 35]: 97%
CC(C)OC(=O)OCOP(=O)(CO[C@H](C)Cn1cnc2c(N)ncnc21)OCOC(=O)OC(C)C [Tenofovir Disoproxil Fumarate] | significant inhibition effect |  |  |  |  |  |  |  |  |  |  |  |  |  |  |  |  |  |  | viability at 10 µM ([1]; NCI-H1650, drug 10 μM, 72 hours, WST-1, OD450 nm, read-out: cell viability (survival rate), H1650): 50.9%; viability at 10 µM ([2]; A549, drug 10 μM, 72 hours, WST-1, OD450 nm, read-out: cell viability (survival rate), A549): 47%; viability at 10 µM ([3]; drug 10 μM, 72 hours, WST-1, OD450 nm, read-out: cell viability (survival rate), AGS): 54.7%; viability at 10 µM ([4]; MKN-45, drug 10 μM, 72 hours, WST-1, OD450 nm, read-out: cell viability (survival rate), MKN-45): 71.6%; viability at 10 µM ([5]; HepG2, drug 10 μM, 72 hours, WST-1, OD450 nm, read-out: cell viability (survival rate), HepG2): 93.7%; viability at 10 µM ([6]; drug 10 μM, 72 hours, WST-1, OD450 nm, read-out: cell viability (survival rate), LoVo): 75.8%; viability at 10 µM ([7]; A-375, drug 10 μM, 72 hours, WST-1, OD450 nm, read-out: cell viability (survival rate), A375): 67.1%; viability at 10 µM ([8]; drug 10 μM, 72 hours, WST-1, OD450 nm, read-out: cell viability (survival rate), HeLa): 85.7%; viability at 10 µM ([9]; drug 10 μM, 72 hours, WST-1, OD450 nm, read-out: cell viability (survival rate), PC3): 66.9%; viability at 10 µM ([10]; drug 10 μM, 72 hours, WST-1, OD450 nm, read-out: cell viability (survival rate), TSGH): 88.2%; viability at 10 µM ([11]; MCF7, drug 10 μM, 72 hours, WST-1, OD450 nm, read-out: cell viability (survival rate), MCF7): 68.7%; viability at 10 µM ([12]; HL-60, drug 10 μM, 72 hours, WST-1, OD450 nm, read-out: cell viability (survival rate), HL-60): 93.4%

From US10105357B2, “Indication of antibiotic drugs for preparation of cancer inhibition pharmaceutical composition” (LAUNX BIOMEDICAL CO., LTD., priority 2014, dated 2018)
